Measured values taken from US20250270199A1, “THIAZOLE DERIVATIVES AND METHODS OF USING THE SAME” (Arkansas State University - Jonesboro, priority 2022, published 2025).
In brackets after ≈: the same amount, converted by molar mass. One block for each compound: values may come before it.

Assays:
[1] = tested on: S. aureus subsp. aureus Rosenbach ATCC 25904 (SA Newman); test: MIC, broth microdilution, SA Newman; type: cell-based; conditions: Staphylococcus aureus; Table 1, HT series; read-out: Minimum inhibitory concentration (MIC) Sa Newman
Protocol: (§1) The broth microdilution method was utilized to determine MIC values of novel thiazole derivatives against different clinically important Gram-positive bacteria according to the guidelines outlined by the Clinical and Laboratory Standards Institute (CLSI) as reported in our recent papers.^1-5 The starting concentration of compounds for MIC determination was 64 μg/mL serially diluted down the wells and the MIC values were recorded in duplicates in three independent experiments on different days.

[2] = tested on: S. aureus ATCC 700699 (Sa 99); test: MIC, broth microdilution, Sa 99; type: cell-based; conditions: Staphylococcus aureus, ATCC700699, Table 1, HT series; replicates from different days separated by comma; read-out: Minimum inhibitory concentration (MIC) Sa 99
Protocol: as §1

[3] = tested on: E. faecalis ATCC 29212 (Efs 12); test: MIC, broth microdilution, Efs 12; type: cell-based; conditions: Enterococcus faecalis, ATCC29212, Table 1, HT series; replicates from different days separated by comma; read-out: Minimum inhibitory concentration (MIC) Efs 12
Protocol: as §1

[4] = tested on: S. aureus subsp. aureus Rosenbach BAA-1717 (Sa USA 300); test: MIC, broth microdilution, Sa USA 300; type: cell-based; conditions: Staphylococcus aureus; Table 1, HT series; read-out: Minimum inhibitory concentration (MIC) SA USA 300
Protocol: as §1

[5] = tested on: S. aureus ATCC BAA-2312 (Sa 12); test: MIC, broth microdilution, Sa 12; type: cell-based; conditions: Staphylococcus aureus, ATCCBAA2312; Table 1, HT series; read-out: Minimum inhibitory concentration (MIC) Sa 12
Protocol: as §1

[6] = tested on: E. faecium ATCC 700221 (Efm 21); test: MIC, broth microdilution, Efm 21; type: cell-based; conditions: Enterococcus faecium, ATCC700221, Table 1, HT series; read-out: Minimum inhibitory concentration (MIC) Efm 21
Protocol: as §1

[7] = tested on: S. epidermidis ATCC 700296 (Se); test: MIC, broth microdilution, Se; type: cell-based; conditions: Staphylococcus epidermidis, ATCC700296; Table 1, HT series; read-out: Minimum inhibitory concentration (MIC) Se
Protocol: as §1

[8] = tested on: S. aureus ATCC 33592 (Sa 92); test: MIC, broth microdilution, Sa 92; type: cell-based; conditions: Staphylococcus aureus, ATCC33592; Table 1, HT series; read-out: Minimum inhibitory concentration (MIC) Sa 92
Protocol: as §1

[9] = tested on: S. aureus ATCC 25923 (Sa 23); test: MIC, broth microdilution, Sa 23; type: cell-based; conditions: Staphylococcus aureus, ATCC25923, Table 1, HT series; replicates from different days separated by comma; read-out: Minimum inhibitory concentration (MIC) Sa 23
Protocol: as §1

[10] = tested on: B. subtilis ATCC 6633 (Bs); test: MIC, broth microdilution, Bs; type: cell-based; conditions: Bacillus subtilis, ATCC6633; Table 1, HT series; read-out: Minimum inhibitory concentration (MIC) Bs
Protocol: as §1

[11] = tested on: S. aureus ATCC 33591 (Sa 91); test: MIC, broth microdilution, Sa 91; type: cell-based; conditions: Staphylococcus aureus, ATCC33591; Table 1, HT series; read-out: Minimum inhibitory concentration (MIC) Sa 91
Protocol: as §1

[12] = tested on: Sa UAMS-1 MRSA ATCC 49230 (Sa UAMS); test: MIC, broth microdilution, Sa UAMS; type: cell-based, S. aureus; conditions: Staphylococcus aureus; Table 1, HT series; read-out: Minimum inhibitory concentration (MIC) Sa UAMS
Protocol: as §1

[13] = tested on: E. faecalis ATCC 51299 (Efs 99); test: MIC, broth microdilution, Efs 99; type: cell-based; conditions: Enterococcus faecalis, ATCC51299; Table 1, HT series; read-out: Minimum inhibitory concentration (MIC) Efs 99
Protocol: as §1

Structure (SMILES): Oc1ccc(-c2nc(-c3ccc(Cl)c(Cl)c3)cs2)cc1O [Compound 31, 4-(4-(3,4-dichlorophenyl)thiazol-2-yl)benzene-1,2-diol]
- MIC [1]: 4 µg/mL (≈ 11.8 µM)
- MIC [2]: 4 µg/mL (≈ 11.8 µM)
- MIC [3]: 16 µg/mL (≈ 47.3 µM)
- MIC [4]: 4 µg/mL (≈ 11.8 µM)
- MIC [5]: 4 µg/mL (≈ 11.8 µM)
- MIC [6]: 16 µg/mL (≈ 47.3 µM)
- MIC [7]: 4 µg/mL (≈ 11.8 µM)
- MIC [8]: 4 µg/mL (≈ 11.8 µM)
- MIC [9]: 4 µg/mL (≈ 11.8 µM)
- MIC [10]: 16 µg/mL (≈ 47.3 µM)
- MIC [11]: 4 µg/mL (≈ 11.8 µM)
- MIC [12]: 4 µg/mL (≈ 11.8 µM)
- MIC [13]: 16 µg/mL (≈ 47.3 µM)

Structure (SMILES): Oc1ccc(-c2nc(-c3ccc(Cl)cc3Cl)cs2)cc1 [Compound 34, 4-(4-(2,4-dichlorophenyl)thiazol-2-yl)phenol]
- MIC [1]: 4 µg/mL (≈ 12.4 µM)
- MIC [2]: 4 µg/mL (≈ 12.4 µM)
- MIC [3]: 8 µg/mL (≈ 24.8 µM)
- MIC [4]: 4 µg/mL (≈ 12.4 µM)
- MIC [5]: 4 µg/mL (≈ 12.4 µM)
- MIC [6]: 8 µg/mL (≈ 24.8 µM)
- MIC [7]: 4 µg/mL (≈ 12.4 µM)
- MIC [8]: 4 µg/mL (≈ 12.4 µM)
- MIC [9]: 4 µg/mL (≈ 12.4 µM)
- MIC [10]: 4 µg/mL (≈ 12.4 µM)
- MIC [11]: 4 µg/mL (≈ 12.4 µM)
- MIC [12]: 4 µg/mL (≈ 12.4 µM)
- MIC [13]: 8 µg/mL (≈ 24.8 µM)

Structure (SMILES): Oc1ccc(-c2nc(-c3cccc(Cl)c3)cs2)cc1 [Compound 38, 4-(4-(3-chlorophenyl)thiazol-2-yl)phenol]
- MIC [1]: 4 µg/mL (≈ 13.9 µM)
- MIC [2]: 4 µg/mL (≈ 13.9 µM)
- MIC [3]: 8 µg/mL (≈ 27.8 µM)
- MIC [4]: 4 µg/mL (≈ 13.9 µM)
- MIC [5]: 4 µg/mL (≈ 13.9 µM)
- MIC [6]: 8 µg/mL (≈ 27.8 µM)
- MIC [7]: 4 µg/mL (≈ 13.9 µM)
- MIC [8]: 4 µg/mL (≈ 13.9 µM)
- MIC [9]: 4 µg/mL (≈ 13.9 µM)
- MIC [10]: 4 µg/mL (≈ 13.9 µM)
- MIC [11]: 4 µg/mL (≈ 13.9 µM)
- MIC [12]: 4 µg/mL (≈ 13.9 µM)
- MIC [13]: 8 µg/mL (≈ 27.8 µM)

Structure (SMILES): Oc1ccc(-c2nc(-c3ccc(C(F)(F)F)cc3)cs2)cc1 [Compound 39, 4-(4-(4(trifluoromethyl)phenyl)thiazol-2-yl)phenol]
- MIC [1]: 4 µg/mL (≈ 12.4 µM)
- MIC [2]: 4 µg/mL (≈ 12.4 µM)
- MIC [3]: > 32 µg/mL
- MIC [4]: 4 µg/mL (≈ 12.4 µM)
- MIC [5]: 2 µg/mL (≈ 6.22 µM)
- MIC [6]: 32 µg/mL (≈ 99.6 µM)
- MIC [7]: 2 µg/mL (≈ 6.22 µM)
- MIC [8]: 4 µg/mL (≈ 12.4 µM)
- MIC [9]: 2 µg/mL (≈ 6.22 µM)
- MIC [10]: 4 µg/mL (≈ 12.4 µM)
- MIC [11]: 4 µg/mL (≈ 12.4 µM)
- MIC [12]: 4 µg/mL (≈ 12.4 µM)
- MIC [13]: > 32 µg/mL

The remaining compounds from weak to strong by MIC [1], led by results:

- MIC [1]: 4 µg/mL (≈ 12.4 µM)
- MIC [2]: 8 µg/mL (≈ 24.9 µM)
- MIC [3]: 16 µg/mL (≈ 49.7 µM)
- MIC [4]: 4 µg/mL (≈ 12.4 µM)
- MIC [5]: 8 µg/mL (≈ 24.9 µM)
- MIC [6]: 16 µg/mL (≈ 49.7 µM)
- MIC [7]: 8 µg/mL (≈ 24.9 µM)
- MIC [8]: 8 µg/mL (≈ 24.9 µM)
- MIC [9]: 8 µg/mL (≈ 24.9 µM)
- MIC [10]: 16 µg/mL (≈ 49.7 µM)
- MIC [11]: 4 µg/mL (≈ 12.4 µM)
- MIC [12]: 4 µg/mL (≈ 12.4 µM)
- MIC [13]: 16 µg/mL (≈ 49.7 µM)
Structure (SMILES): Oc1ccc(-c2nc(-c3ccc(F)c(Cl)c3)cs2)cc1O [Compound 21, 4-(4-(3-chloro-4-fluorophenyl)thiazol-2-yl)benzene-1,2-diol]

- MIC [1]: 2 µg/mL (≈ 5.14 µM)
- MIC [2]: 2 µg/mL (≈ 5.14 µM)
- MIC [3]: 2 µg/mL (≈ 5.14 µM)
- MIC [4]: 2 µg/mL (≈ 5.14 µM)
- MIC [5]: 2 µg/mL (≈ 5.14 µM)
- MIC [6]: 2 µg/mL (≈ 5.14 µM)
- MIC [7]: 2 µg/mL (≈ 5.14 µM)
- MIC [8]: 2 µg/mL (≈ 5.14 µM)
- MIC [9]: 2 µg/mL (≈ 5.14 µM)
- MIC [10]: 2 µg/mL (≈ 5.14 µM)
- MIC [11]: 2 µg/mL (≈ 5.14 µM)
- MIC [12]: 2 µg/mL (≈ 5.14 µM)
- MIC [13]: 2 µg/mL (≈ 5.14 µM)
Structure (SMILES): Oc1ccc(-c2nc(-c3cc(C(F)(F)F)cc(C(F)(F)F)c3)cs2)cc1 [Compound 36, 4-(4-(3,5-bis(trifluoromethyl)phenyl)thiazol-2-yl)phenol]

- MIC [1]: 2 µg/mL (≈ 6.21 µM)
- MIC [2]: 1 µg/mL (≈ 3.1 µM)
- MIC [3]: 2 µg/mL (≈ 6.21 µM)
- MIC [4]: 1 µg/mL (≈ 3.1 µM)
- MIC [5]: 1 µg/mL (≈ 3.1 µM)
- MIC [6]: 2 µg/mL (≈ 6.21 µM)
- MIC [7]: 1 µg/mL (≈ 3.1 µM)
- MIC [8]: 1 µg/mL (≈ 3.1 µM)
- MIC [9]: 1 µg/mL (≈ 3.1 µM)
- MIC [10]: 4 µg/mL (≈ 12.4 µM)
- MIC [11]: 1 µg/mL (≈ 3.1 µM)
- MIC [12]: 2 µg/mL (≈ 6.21 µM)
- MIC [13]: 2 µg/mL (≈ 6.21 µM)
Structure (SMILES): Oc1ccc(-c2nc(-c3ccc(Cl)c(Cl)c3)cs2)cc1 [Compound 41, 4-(4-(3,4-dichlorophenyl)thiazol-2-yl)phenol]
